Legend:
[1] = system: mice subjected to controlled cortical impact injury; experiment: TUNEL staining of apoptotic cells; format: in vivo; conditions: 20 mg/kg ip 10 min after CCI; day 1; vehicle 57.8±6.4%; P<0.01
Experimental: All animal procedures were approved by the Animal Research Committee at Cheng Hsin General Hospital (Animal permit number […] 101-08), and all procedures complied with the Guide for the Care and Use of Laboratory Animals published by the US National Institutes of Health (NIH Publication No. 85-23, revised 1996). Animals were housed under a 12-h light/dark cycle and at constant temperature (21-25°C) and humidity (45-50%). They were allowed free access to pellet chow and water. TBI in mice was induced by a CCI injury model as previously described. Briefly, 8-week-old male C57BL/6 mice (weighing 22-25 g) were anesthetized through the use of intraperitoneal injection of sodium pentobarbital (65 mg/kg; Rhone Merieux, Harlow, UK) and placed in a stereotaxic frame. A 5 mm craniotomy was performed over the right parietal cortex, centered on the coronal suture and 0.1 mm lateral to the sagittal suture, and injury to dura was avoided. […] Body temperature was monitored throughout the surgery by a rectal probe; temperature was maintained at 37.0±0.5°C using a heated pad. […] To determine the optimal dose of salidroside, a pilot study was performed using 2 different doses (20 and 50 mg/kg) administered 10 min after injury, and neurological deficits and tissue damage were evaluated as the main outcomes. […]

cleaved caspase-3 = experiment: Western blot, injured cortex; format: in vivo, mice; conditions: for decrease of cleaved caspase-3 level versus vehicle: 20 mg/kg ip 10 min after CCI, P<0.05
Experimental: Three sets of experiments were performed. The first set was to investigate the protective effects of salidroside. All animals were randomized into 1 of 3 groups (sham injury, CCI + vehicle, CCI + SALD 20). Surgery/injury, behavioral testing, and tissue analyses were performed by different individuals. Behavioral testing and tissue analyses were performed by individuals blinded to the treatment group. Salidroside (Cayman Chemical, Ann Arbor, MI, USA) dissolved in normal saline (0.25 mL) or a corresponding volume of vehicle (saline) was administered intraperitoneally 10 min following injury. Testing after injury was completed as follows: 1) behavioral testing at days 1, 4, 7, 14, 21, and 28 (n = 8–10 mice/group); 2) cresyl violet staining at day 28 (n = 9 mice/group); 3) histology, determination of brain water content, and western blot analysis at day 1 or 3 (n = 5–6 mice/group). To determine the optimal dose of salidroside, a pilot study was performed using 2 different doses (20 and 50 mg/kg) administered 10 min after injury, and neurological deficits and tissue damage were evaluated as the main outcomes. […] The second set of experiment was to assess the effect of the inhibition of PI3K/Akt with the specific PI3K inhibitor, LY294002 (Cell Signaling Technology, Danvers, MA, USA), on salidroside effects. Animals were randomized into 4 groups. Mice received either: 1) icv pretreatment of LY294002 followed by SALD 20 after CCI (S20Y group); or 2) icv pretreatment of saline (vehicle control) followed by SALD 20 after CCI (S20V group). 3) Mice were infused icv with saline and were subjected to sham injury. 4) Mice were infused icv with LY294002 and were subjected to sham injury. […] Protein concentration was determined by Bradford reagent spectrophotometrically at A595. […] The relative intensity of protein signals was normalized to the corresponding β-actin intensity and was quantified by densitometric analysis with the use of Image J software.

Structure (SMILES): OC[C@H]1O[C@@H](OCCc2ccc(O)cc2)[C@H](O)[C@@H](O)[C@@H]1O [SALD, salidroside]
- TUNEL-positive cells (TUNEL-stained nuclei/DAPI-stained nuclei) [1]: 31.0±6.4%
- decrease of cleaved caspase-3 level versus vehicle (cleaved caspase-3; day 1): 49.6%
- decrease of cleaved caspase-3 level versus vehicle (cleaved caspase-3; day 3): 34.9%
- reduction of cleaved caspase-3 level (cleaved caspase-3; 20 mg/kg ip 3 h after injury, day 1): 34.1%

Reference: article PMC3454376, “Salidroside Improves Behavioral and Histological Outcomes and Reduces Apoptosis via PI3K/Akt Signaling after Experimental Traumatic Brain Injury” (PLoS ONE, 2012)
